Experimental data published in publication PMC13492380, “Dissecting Structural and Functional Determinants of Microtubules Stabilization through Guided Chemical Modulation” (Journal of Medicinal Chemistry, 2026).
Where two headings read alike, the source gives them in different places.

What was measured:
[1] = system: taxane site of assembled cross-linked MTs; conditions: cited from earlier work
[2] = system: human Kif5B 1–905-EGFP on stabilized MTs; experiment: Single-molecule kinesin-1 motility assay on stabilized MTs (TIRF); assay type: biochemical
Description: To gain mechanistic insight into the kinesin phenotype observed in cells, we reduced system complexity using an in vitro reconstitution assay. Specifically, we performed time-lapse imaging using total internal reflection fluorescence (TIRF) microscopy with immobilized and stabilized MTs in a flow chamber, into which we introduced 1.08 nM kinesin-1 motors (constitutively active human Kif5B 1–905-EGFP). We then analyzed individual kinesin movements to quantify landing rates (number of motors per unit MT length per unit time), run lengths, interaction times, and average velocities (Figure D, Movies S12–S15). In contrast to our experiments in cells, here we evaluated each structural modification individually to dissect the effects of MT lattice parameters on kinesin-1 mediated transport.
Total Internal Reflection Fluorescence microscopy experiments were performed on an inverted widefield microscope Nikon-Ti2 E, equipped with a motorized XY-stage, a perfect focus system, Apo TIRF 60× oil NA 1.49 objective and PRIME BSY (Teledyne Photometrics) camera. MTs were visualized using Interference Reflection microscopy (IRM) and fluorescently labeled proteins were visualized sequentially by switching between microscope filter cubes for GFP and mCherry channels. The microscopes were controlled using NIS Elements software (Nikon). All experiments were conducted at RT.
Microscopy chambers were prepared from two sandwiched silanized glass coverslips (22 × 22 mm^2 and 18 × 18 mm^2) attached through parafilm strips (heated for 15–20 s at 60 °C and gently pressed together) to form ∼2.5 mm wide parallel flow channels. Prior to the chamber assembly, the coverslips were washed in 3 M KOH, cleaned using Zepto plasma cleaner (Diener electronic) and silanized with hexamethyldisilazane. Flow channels were first incubated with 40 μgml^–1 antibiotin antibodies (Sigma, B3640) in PBS for 10 min, followed by incubation with 1% Pluronic F127 (Sigma-Aldrich, P2443) in PBS for at least 1 h. F127 was washed with BRB80 (80 mM PIPES, 1 mM EGTA, 1 mM MgCl2, pH 6.9).
Porcine brain tubulin was isolated using the high-molarity PIPES procedure then mixed with Biotin labeled tubulin (Cytoskeleton Inc., T333P) in 1:49 ratio. All MTs were polymerized using 2% biotin-labeled tubulin. […] Polymerized MTs were centrifuged for 30 min at 18,000g in a Microfuge 18 Centrifuge (Beckman Coulter’s). […] Drug stabilized preassembly MTs (polymerized in the presence of drugs and GTP, stored and imaged in presence of drug) were polymerized from 4 mg mL^–1 biotinylated tubulin for 30 min at 37 °C in BRB80 supplemented with 4 mM MgCl2, 40 μM drug of interest in 5% DMSO, and 1 mM GTP. Polymerized MTs were centrifuged for 30 min at 18,000g in a Microfuge 18 Centrifuge (Beckman Coulter’s). […] GMPCPP stabilized MTs (GMPCPP polymerized) were assembled from 4 mg mL^–1 biotinylated tubulin for 2 h at 37 °C in BRB80 supplemented with 1 mM MgCl2 and 1 mM GMPCPP (Jena Bioscience, NU-405). Polymerized MTs were centrifuged for 30 min at 18,000g in a Microfuge 18 Centrifuge (Beckman Coulter’s) and pellets were resuspended and kept in BRB80.
Stabilized MTs were flushed into the channel and incubated for 15–30 s to allow for surface attachment. Unbound MTs were removed by washing with BRB80 supplemented with 10 μM of drug. Prior the experiment, the solution was exchanged by motility buffer, MB (BRB80 containing 10 mM DTT, 20 mM D-glucose, 0.1% Tween-20, 0.5 mg/mL casein, 1 mM Mg-ATP, 0.02 mg/mL catalase, 0.22 mg/mL glucose oxidase, 10 μM drug). Subsequently, a solution containing either 1.08 nM Kif5b-EGFP or 10/40 nM mCherry-Tau in MB was introduced into the chamber.
To assess kinesin-EGFP motility along MTs, an IRM image (50 ms exposure) was acquired followed by a 1 min video using 488 nm laser excitation (20% laser intensity, 300 ms exposure) with no delay. Two to three videos were recorded from different fields within the same channel and at least 2 channels were measure for each experimental condition. […]

A549 cells = experiment: Indirect immunofluorescence of the microtubular network; assay type: cell-based, human; conditions: 24 h
Source text: We first assessed their impact on the cellular microtubular network. […] These defects manifested as multinucleated cells resulting from multiple abnormal star-like spindles, leading to an aberrant arrangement of chromosomes. […] We then evaluated their ability to overcome intrinsic resistance mechanisms using cell lines overexpressing βIII-tubulin isotype (HeLaβIII) or P-glycoprotein, PgP, (Kb-V1), compared to parental HeLa and Kb-3.1 cells.
2 Cellular and biochemical characterization of compounds 1a and 1b. (A) Effects of compounds on A549 cells. […] Top row panels are control cells treated with 0.5% DMSO (vehicle), with the usual and evenly distributed microtubular network in interphase and normal bipolar spindle with chromosomes aligned at the metaphase plate during mitosis. […] All images are shown at the same magnification; scale bar 10 μm. […] (C) Van’t Hoff Plot of the equilibrium binding constants of compounds 1a and 1b at the assayed temperatures. Error bars represent the standard error of the measurement.
DMSO was always less than 0.5% v/v. PEG and Triton X-100 were applied to cells prior the fixation with 3.7% formaldehyde, as previously described. Cells were incubated with a DM1A mouse monoclonal antibody (Sigma-Aldrich) reacting with α-tubulin. […] Images were recorded using a Leica DFC360 FX CCD camera.

HeLa cells = experiment: MTT cytotoxicity assay, HeLa; assay type: cell-based; conditions: Homo sapiens, 48 h, read-out: Cytotoxicity IC50 HeLa
Description: Antiproliferative assays were performed as described. […] Then, increasing concentrations of drugs were added and incubated for 48 h prior to the reaction with the MTT solution. IC50 values were obtained by fitting the experimental data (absorbance at 570/690 nm) to a four-parameter logistic curve using SigmaPlot 14.5 software package (Systat Software, Inc., San Jose, CA, USA) and IC50 values were expressed as mean ± SEM from three independent experiments, each performed in duplicate.

[3] = ref footnote b 'As in ref .' (number not given)
[4] = equilibrium constants from anisotropy measurements, ref footnote c 'As in ref .' (number not given)

CC(=O)O[C@H]1C(=O)[C@@]2(C)[C@H]([C@H](OC(=O)c3ccccc3)[C@]3(O)C[C@H](OC(=O)[C@H](O)[C@@H](NC(=O)c4ccccc4)c4ccccc4)C(C)=C1C3(C)C)[C@]1(OC(C)=O)CO[C@@H]1C[C@@H]2O [PTX, Paclitaxel]
K b 26 °C [1, 3]: (2.64 ± 0.17) × 10^7 M-1 | K b 35 °C [1, 3]: (1.43 ± 0.17) × 10^7 M-1 | K b 42 °C [1, 3]: (0.94 ± 0.23) × 10^7 M-1 | ΔG 0 app at 26 °C [1, 3]: –41.7 ± 0.2 kJ mol^–1 | ΔS 0 app [1, 3]: –29.3 ± 13.1 J mol ^aK^–1 | kinesin-1 run length on stabilized MTs ([2]; compared to native-like MTs): reduce run length

CC(=O)OC1C(=O)C2(C)C(OC(=O)CCCCC(=O)OC3CCc4ccccc43)CC3OCC3(OC(C)=O)C2C(OC(=O)c2ccccc2)C2(O)CC(OC(=O)C(O)C(NC(=O)c3ccccc3)c3ccccc3)C(C)=C1C2(C)C (stereo not shown) [1a, 7-O-(6″-O-(2‴,3‴-Dihydroinden-1‴-yl)hexanedioyl) Paclitaxel]
kinesin-1 landing rate on stabilized MTs ([2]; 1.08 nM Kif5b-EGFP, 10 μM drug): increased on 1a compared with 1b | kinesin-1 time bound on stabilized MTs ([2]; 1.08 nM Kif5b-EGFP, 10 μM drug): increased the time bound | kinesin-1 velocity on stabilized MTs ([2]; 1.08 nM Kif5b-EGFP, 10 μM drug): decreased the velocity | selected concentration showing equivalent effect on microtubular network and mitotic spindles (A549 cells): 2 µM | IC50 (HeLa cells): 180 ± 20 nM

COc1ccc2c(c1)CC(NC(=O)CCCCCCCC(=O)OC1CC3OCC3(OC(C)=O)C3C(OC(=O)c4ccccc4)C4(O)CC(OC(=O)C(O)C(NC(=O)c5ccccc5)c5ccccc5)C(C)=C(C(OC(C)=O)C(=O)C13C)C4(C)C)CC2 [1b, 7-O-((S)-9″-(7‴-Methoxy-1‴,2‴,3‴,4‴-tetrahydronaphthalen-2‴-yl)amino) −9″-oxononanoyl) Paclitaxel]
selected concentration showing equivalent effect on microtubular network and mitotic spindles (A549 cells): 1 µM | IC50 (HeLa cells; MTT, mean ± SEM): 100 ± 20 nM

CC(=O)O[C@H]1C(=O)[C@]2(C)[C@@H](OC(=O)[C@H](C)NC(=O)c3ccc(-c4c5cc(F)c(=O)cc-5oc5cc(O)c(F)cc45)c(C(=O)O)c3)C[C@H]3OC[C@@]3(OC(C)=O)[C@H]2[C@H](OC(=O)c2ccccc2)[C@]2(O)C[C@H](OC(=O)[C@H](O)[C@@H](NC(=O)c3ccccc3)c3ccccc3)C(C)=C1C2(C)C [FTX2, Flutax2]
K b 26 °C [1, 4]: (5.9 ± 0.3) × 10^7 M-1 | K b 35 °C [1, 4]: (2.2 ± 0.2) × 10^7 M-1 | K b 42 °C [1, 4]: (1.8 ± 0.2) × 10^7 M-1
